# Experimental data published in patent US20260297031A1, “HYDROXYLAMINE-BASED BCR-ABL1 INHIBITORS FOR TREATMENT OF CANCER” (University of Georgia Research Foundation, Inc., priority 2023, published 2026).
# pIC50: −log10 of the molar value. Entries after “also recorded” stand apart in the source; their conditions may differ.
# Legend:
# [1] = system: P-glycoprotein (P-gp) and/or breast cancer resistance protein (BCRP); conditions: cited from earlier work
# BCR-ABL1 T315I = molecular target: T1, BCR-ABL1 T315I (Homo sapiens, UniProt P00519, T315I); assay: KinaseProfiler radiometric kinase assay, BCR-ABL1 T315I; format: biochemical; conditions: gatekeeper mutation
# T1 construct: BCR (fusion partner, as the printed name BCR-ABL1 says)
# mutant BCR-ABL1 = assay: KinaseProfiler radiometric kinase assay, mutant BCR-ABL1 kinases as a group; format: biochemical, human; conditions: read-out: IC50 against (imatinib resistant / relevant) mutant BCR-ABL1 kinases; group of mutants
# Description: Biochemical Human RTK Kinase Enzymatic Radiometric Assay, KinaseProfiler (Independently Performed by Eurofins Cerep SA, FR)
# KU812 cells = assay: In vitro CTG antiproliferative assay, KU812; format: cell-based; conditions: KU812, 72 h
# Protocol: (§2) Cells listed in the table above were initially harvested during logarithmic growth period followed by re-suspension and counting using a Vi cell counter (cell viability was measured by trypan blue exclusion assay). Cells were then diluted and 90 μL cell suspensions were added to 96-well plates. […] To(Time 0) plate was then taken by 10 μL of culture medium being added to each well followed by 50 μL CellTiter-Glo® Reagent being added. The contents were then mixed for 2 min on an orbital shake to facilitate cell lysis. Next, the plate was incubated at room temperature for 10 min to stabilize luminescent signal. Blackseal black sticker was placed to the bottom of each plate and the luminescence was recorded using EnVision multi label reader. Test compounds and 10 μL of each 10× compound working solutions was added according to the plate inoculation map. […] Contents were then mixed for 2 min on an orbital shaker to facilitate cell lysis. The plate then was incubated at room temperature for 10 min to stabilize luminescent signal. Blackseal black sticker was placed to the bottom of each plate and the luminescence recorded using EnVision multi label reader.
# MEG-01 cells = assay: In vitro CTG antiproliferative assay, MEG-01; format: cell-based; conditions: MEG-01, 72 h
# Protocol: (§1) In Vitro CTG Assay (Independently Performed By: Crown Bioscience, Taicanq, CN)
# Cells listed in the table above were initially harvested during logarithmic growth period followed by re-suspension and counting using a Vi cell counter (cell viability was measured by trypan blue exclusion assay). Cells were then diluted and 90 μL cell suspensions were added to 96-well plates. Plates were then incubated overnight in a humidified incubator at 37° C. with 5% CO2. To(Time 0) plate was then taken by 10 μL of culture medium being added to each well followed by 50 μL CellTiter-Glo® Reagent being added. The contents were then mixed for 2 min on an orbital shake to facilitate cell lysis. Next, the plate was incubated at room temperature for 10 min to stabilize luminescent signal. Blackseal black sticker was placed to the bottom of each plate and the luminescence was recorded using EnVision multi label reader. Test compounds and 10 μL of each 10× compound working solutions was added according to the plate inoculation map. […] Blackseal black sticker was placed to the bottom of each plate and the luminescence recorded using EnVision multi label reader.
# Relative IC50 was calculated with a dose-response curve fitted using nonlinear regression model with a sigmoidal dose response on GraphPad Prism version 9.5.1. […]
# SUP-B15 cells = assay: In vitro CTG antiproliferative assay, SUP-B15; format: cell-based; conditions: SUP-B15, 72 h
# Protocol: as §2
# Molt-4 cells = assay: In vitro CTG antiproliferative assay, Molt-4; format: cell-based
# Protocol: as §1
# Cells listed in the table above were initially harvested during logarithmic growth period followed by re-suspension and counting using a Vi cell counter (cell viability was measured by trypan blue exclusion assay). Cells were then diluted and 90 μL cell suspensions were added to 96-well plates. Plates were then incubated overnight in a humidified incubator at 37° C. with 5% CO2. To(Time 0) plate was then taken by 10 μL of culture medium being added to each well followed by 50 μL CellTiter-Glo® Reagent being added. The contents were then mixed for 2 min on an orbital shake to facilitate cell lysis. Next, the plate was incubated at room temperature for 10 min to stabilize luminescent signal. Blackseal black sticker was placed to the bottom of each plate and the luminescence was recorded using EnVision multi label reader. Test compounds and 10 μL of each 10× compound working solutions was added according to the plate inoculation map. Plates were then placed back into the incubator and after 72 h, 50 μL CellTiter-Glo® was added to each well. Contents were then mixed for 2 min on an orbital shaker to facilitate cell lysis. The plate then was incubated at room temperature for 10 min to stabilize luminescent signal. Blackseal black sticker was placed to the bottom of each plate and the luminescence recorded using EnVision multi label reader.
# Relative IC50 was calculated with a dose-response curve fitted using nonlinear regression model with a sigmoidal dose response on GraphPad Prism version 9.5.1. […] The formula for calculating survival rate was (n=3 replicates): […]
# CHO-K1 cells = conditions: +/− S9; 0.2-500 μM
# Description: High content analysis and fluorescent image analysis were used to detect micronuclei. Cyclophosphamide was the positive control in the presence of metabolic activation by rat liver S9 and mitomycin C was the positive control without metabolic activation by rat liver S9.
# BCR-ABL1 M351T = molecular target: T2, BCR-ABL1 M351T (Homo sapiens, UniProt P00519, M351T); assay: KinaseProfiler radiometric kinase assay, BCR-ABL1 M351T; format: biochemical; conditions: [ATP] = 10 μM; mean of n = 2
# T2 construct: BCR (fusion partner, as the printed name BCR-ABL1 says)
# BCR-ABL1 Q252H = molecular target: T3, BCR-ABL1 Q252H (Homo sapiens, UniProt P00519, Q252H); assay: KinaseProfiler radiometric kinase assay, BCR-ABL1 Q252H; format: biochemical; conditions: [ATP] = 10 μM; mean of n = 2
# T3 construct: BCR (fusion partner, as the printed name BCR-ABL1 says)
# cSRC = cSRC (Homo sapiens, UniProt P12931); assay: KinaseProfiler radiometric kinase assay, cSRC wt; format: biochemical; conditions: [ATP] = 10 μM; mean of n = 2
# [2] = Plasma protein binding by equilibrium dialysis, human plasma; format: in vitro ADME; conditions: human plasma; 360 min, 5 µM
# Protocol: Plasma Protein Binding by Equilibrium Dialysis (Independently Performed by Pharmaron Inc., Ninqbo, CN)
# Initially, 1 mM solutions of test compounds and the control compound (Ketoconzaole) were prepared in DMSO. After this, dialysis membranes were soaked in ultrapure water for 60 min to separate strips, followed by 20% aq. ethanol for 20 min, and finally in a dialysis buffer for 20 min. […] After this, 597 μL of blank plasma solution followed by 3 μL of the working solutions of either test compounds or control compound were added to a new plastic plate or separate plastic tube and the solutions were vortexed at 1,000 rpm for 2 min. Immediately after this, 50 μL of spiked plasma solution suspension was transferred to a 96-well plate to act as T=0 control. The remaining samples were treated in the same manner, whereby all remaining spiked plasma solutions were added to the incubator for the duration of the study.
# Cells were then loaded with 120 μL of the plasma samples and dialyzed against an equal volume of dialysis buffer (PBS). […] At the end of incubation, the lid was removed and 50 μL of post-dialysis samples were removed from both buffer and plasma solution chambers into a separate 96-well plate for analysis. The plasma solutions (50 μL) were then added to the buffer samples along with an equal volume of PBS (50 μL) to the collected plasma solution samples. The plate was shaken at 1,000 rpm for 2 min and 400 μL of acetonitrile containing an appropriate internal standard was added to precipitate protein and release compound. The samples were then vortexed at 1,000 rpm for an additional 10 min followed by centrifugation at 3,220 g for 30 min. Supernatant (250 μL) was then added to a new 96-well plate and centrifuged again at 3,220 g for 30 min and 100 μL of this supernatant was then added to a new 96-well plate for analysis. The samples were analyzed by LC-MS/MS and 100 μL of distilled water was added to each sample prior to analysis.
# Concentrations of test compounds and control compound in buffer and plasma solution chambers was determined and percentages of test compounds and control compound bound using the following equations (mean of n=2 replicates): […]
# [3] = Metabolic stability in human hepatocytes; conditions: hepatocytes
# Protocol: Metabolic Stability in Hepatocytes (Independently Performed by Pharmaron Inc., Ninqbo, CN)
# After thawing was complete, hepatocytes were transferred into a 50 mL conical tube containing thawing medium and the tube was then placed into a centrifuge and spun at 100 g for 10 min. […] Using AO/PI staining, cells were counted to determine the viable cell density. […] Subsequently, 2 μL of the 100 μM test compounds or control compound solutions was transferred into the respective wells of the 96-well non-coated plate to start the reaction. […] Aliquots of 100 μL of the supernatant were then diluted by 100 μL of ultra-pure water, and the mixture was analyzed by LC-MS/MS.
# All calculations were carried out using Microsoft Excel. Peak areas were determined from extracted ion chromatograms. The in-vitro half-life (t1/2) of parent compound was determined by regression of the percent parent disappearance vs. time curve.
# Caco-2 cells = assay: Caco-2 permeability; conditions: Papp (b − a/a − b)
# Protocol: Caco-2 Permeability (Independently Performed by Pharmaron Inc., Ningbo, CN)
# To each well of the Transwell insert and reservoir were added 50 μL and 25 mL of cell culture medium, respectively. […] Following this, the Caco-2 plate was removed from the incubator and the monolayer washed twice with pre-warmed HBSS (10 mM HEPES, pH 7.4).
# To determine the rate of drug transport in the apical to basolateral direction, 125 μL of the working solution of either test compounds or control compounds was added to the Transwell insert (apical compartment) and a 50 μL sample was immediately transported from the apical compartment to 200 μL of acetonitrile containing internal standard (100 nM alprazolam, 200 nM Caffeine and 100 nM tolbutamide) in a new 96-well plate as the initial donor sample (A-B). The sample was then vortexed at 1,000 rpm for 10 min. The receiver plate (basolateral compartment) wells were then filled with 235 μL of transport buffer. To determine the rate of drug transport in the basolateral to apical direction, 285 μL of the working solution of either test compounds or control compounds was added to the receiver plate wells (basolateral compartment) and a 50 μL sample was immediately transferred from the basolateral compartment to 200 μL of acetonitrile containing internal standard in a new 96-well plate as the initial donor sample (B-A). The sample was vortexed at 1,000 rpm for 10 min. The Transwell insert (apical compartment) was then filled with 75 μL of transport buffer and the apical to basolateral direction and the basolateral to apical direction were done at the same time. […] After incubation, 50 μL samples from donor sides (apical compartment for Ap→BI flux, and basolateral compartment for BI→Ap) and receiver sides (basolateral compartment for Ap→BI flux, and apical compartment for BI→Ap) were transferred to wells of a new 96-well plate, followed by the addition of 200 μL acetonitrile containing internal standard. All samples were vortexed for 10 min and then centrifuged at 3,220 g for 40 min. A 150 μL aliquot of the supernatant was then mixed with an appropriate volume of ultra-pure water prior to LC-MS/MS analysis.
# To monitor for monolayer integrity, Lucifer yellow leakage was determined after the 2 h transport period. This began by preparing a stock solution of Lucifer yellow in DMSO which was diluted with HBSS (10 mM HEPES, pH 7.4.) to reach a final concentration of 100 μM. To each Transwell insert (apical compartment) was then added 100 μL of the Lucifer yellow solution, followed by filling the wells in the receiver plate (basolateral compartment) with 300 μL of HBSS (10 mM HEPES, pH 7.4).
# The efflux ratio was determined using the following equation: […]
# hERG channel = hERG channel (Homo sapiens, UniProt Q12809); design: expressed in transfected cells; host or cells: HEK 293; conditions: cited from earlier work
# Sequence of hERG channel (Q12809 whole entry): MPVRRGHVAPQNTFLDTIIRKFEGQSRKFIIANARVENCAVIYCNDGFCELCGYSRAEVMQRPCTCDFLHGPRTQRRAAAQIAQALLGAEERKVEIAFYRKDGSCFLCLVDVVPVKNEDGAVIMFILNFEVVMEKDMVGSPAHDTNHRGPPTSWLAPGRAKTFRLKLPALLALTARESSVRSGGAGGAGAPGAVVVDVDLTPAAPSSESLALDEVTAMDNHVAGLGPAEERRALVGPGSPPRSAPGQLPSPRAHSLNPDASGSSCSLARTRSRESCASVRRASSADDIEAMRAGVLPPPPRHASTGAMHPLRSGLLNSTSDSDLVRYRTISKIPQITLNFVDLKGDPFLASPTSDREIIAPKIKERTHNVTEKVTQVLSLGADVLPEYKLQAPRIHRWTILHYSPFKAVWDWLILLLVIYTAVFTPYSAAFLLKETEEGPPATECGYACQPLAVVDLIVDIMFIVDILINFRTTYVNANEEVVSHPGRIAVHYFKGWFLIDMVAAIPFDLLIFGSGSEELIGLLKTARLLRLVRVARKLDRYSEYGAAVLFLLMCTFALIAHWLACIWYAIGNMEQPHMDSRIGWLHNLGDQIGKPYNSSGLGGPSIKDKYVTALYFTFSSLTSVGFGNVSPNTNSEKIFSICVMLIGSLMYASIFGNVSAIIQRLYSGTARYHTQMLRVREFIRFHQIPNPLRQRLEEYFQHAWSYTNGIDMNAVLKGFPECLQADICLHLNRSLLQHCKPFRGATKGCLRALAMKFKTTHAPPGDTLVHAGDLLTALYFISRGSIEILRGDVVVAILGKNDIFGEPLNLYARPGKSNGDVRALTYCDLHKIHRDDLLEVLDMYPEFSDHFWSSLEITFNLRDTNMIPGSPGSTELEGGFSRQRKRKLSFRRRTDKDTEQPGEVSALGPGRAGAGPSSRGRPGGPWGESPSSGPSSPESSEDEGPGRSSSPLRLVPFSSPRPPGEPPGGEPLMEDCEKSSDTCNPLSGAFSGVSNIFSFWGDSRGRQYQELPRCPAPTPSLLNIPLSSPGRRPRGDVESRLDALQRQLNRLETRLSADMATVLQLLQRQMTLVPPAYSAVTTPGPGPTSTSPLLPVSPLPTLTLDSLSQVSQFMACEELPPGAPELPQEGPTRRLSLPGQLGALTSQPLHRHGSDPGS
# Sequence of cSRC (P12931 whole entry): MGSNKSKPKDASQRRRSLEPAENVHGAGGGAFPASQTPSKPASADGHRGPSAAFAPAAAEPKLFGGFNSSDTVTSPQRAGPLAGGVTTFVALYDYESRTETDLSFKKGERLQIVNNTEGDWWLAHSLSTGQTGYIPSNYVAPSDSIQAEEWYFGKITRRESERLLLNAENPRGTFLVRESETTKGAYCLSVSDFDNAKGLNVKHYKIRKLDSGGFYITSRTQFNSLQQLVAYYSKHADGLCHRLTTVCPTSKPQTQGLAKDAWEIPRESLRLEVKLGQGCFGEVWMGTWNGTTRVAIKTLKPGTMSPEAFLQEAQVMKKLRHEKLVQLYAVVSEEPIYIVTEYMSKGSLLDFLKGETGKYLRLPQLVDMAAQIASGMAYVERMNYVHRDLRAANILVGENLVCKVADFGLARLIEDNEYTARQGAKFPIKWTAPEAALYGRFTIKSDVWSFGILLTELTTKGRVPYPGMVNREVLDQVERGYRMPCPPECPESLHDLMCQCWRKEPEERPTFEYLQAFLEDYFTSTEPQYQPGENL
compound,measurement,setting,value
"O=C(Nc1ccc(OC(F)(F)Cl)cc1)c1cnc(N2CC[C@@H](O)C2)c(-c2ccn[nH]2)c1 [Asciminib, asciminib]",efflux transporter substrate (background),[1],P-gp substrates; also recorded: potent substrates for efflux transporters
"COc1cc(Nc2c(C#N)cnc3cc(OCCON4CCN(C)CC4)c(OC)cc23)c(Cl)cc1Cl [Compound 7, 4-((2,4-dichloro-5-methoxyphenyl)amino)-6-methoxy-7-(2-((4-methylpiperazin-1-yl)oxy)ethoxy)quinoline-3-carbonitrile]","activity against BCR-ABL1 T315I, in words",BCR-ABL1 T315I,slightly reduced activity
same,pIC50,mutant BCR-ABL1,> 9.00
same,"antiproliferative activity, in words",KU812 cells,potent antiproliferative activity; also recorded: excellent antiproliferative activity
same,"antiproliferative activity, in words",MEG-01 cells,potent antiproliferative activity; also recorded: excellent antiproliferative activity
same,"antiproliferative activity, in words",SUP-B15 cells,reduced activity
same,pIC50,"Molt-4 cells; Homo sapiens, Molt-4 (BCR-ABL1−), 72 h",< 5.70
same,"antiproliferative activity, in words","Molt-4 cells; Molt-4, 72 h",minimal activity
same,Micronucleus result,CHO-K1 cells,neither mutagenic nor genotoxic; also recorded: Negative
"COc1cc2c(Nc3cccc(OC)c3F)c(C#N)cnc2cc1OCCON1CCN(C)CC1 [Compound 18, 4-((2-Fluoro-3-methoxyphenyl)amino)-6-methoxy-7-(2-((4-methylpiperazin-1-yl)oxy)ethoxy)quinoline-3-carbonitrile]",pIC50,BCR-ABL1 M351T,7.62
same,pIC50,BCR-ABL1 Q252H,7.52
same,pIC50,cSRC,7.47
same,pIC50,mutant BCR-ABL1,≤ 7.82
same,% Unbound,[2],12.97%
same,remaining at 0.5 min,[3],100%
same,remaining at 0.5 h,[3],95.7%
same,remaining at 1 h,[3],80.4%
same,remaining at 2 h,[3],54.9%
same,Efflux Ratio,Caco-2 cells,12.36
"Cc1nc(Nc2ncc(C(=O)Nc3c(C)cccc3Cl)s2)cc(N2CCN(CCO)CC2)n1 [Dasatinib, dasatinib]",efflux transporter substrate (background),[1],P-gp substrates; also recorded: potent substrates for efflux transporters
same,"hERG liability, in words (background)",hERG channel,reduced affinity for the hERG ion channel
"Cc1cn(-c2cc(NC(=O)c3ccc(C)c(Nc4nccc(-c5cccnc5)n4)c3)cc(C(F)(F)F)c2)cn1 [Nilotinib, nilotinib]","hERG liability, in words (background)",hERG channel,inhibition of the human Ether-b-go-go-Related Gene (hERG) potassium ion channel
